In patent publication EP1401829B1, “NOVEL HETEROCYCLIC ANTIBACTERIAL COMPOUNDS” (Microbiotix, Inc., priority 2001, dated 2002):
≈ marks a conversion by molar mass, not a printed value. Like-named read-outs stand apart in the source and are kept apart here. Marks after values point to notes of the source that are not given here.

How the values were obtained:
MRSA 1123 = assay: MIC against clinically relevant strains; format: cell-based; conditions: Staphylococcus aureus, methicillin resistant S. aureus strain
Method: (§1) The following methods were used to characterize representative compounds. Minimal Inhibitory Concentration (MIC) determinations. MIC values were determined in 96 well plates, with bacterial growth monitored at OD 600 nm in 200µl following an initial bacterial seeding at approximately 1x10^5 colony forming units (CFU)/ml. Each drug is evaluated at five concentrations, with five data points at each dilution. MIC values (µg/ml) were determined against actively growing cultures in Heart-Brain Infusion (HBI) medium. Cell growth in cultures supplemented with a test compound was calculated as a percent of control at OD 600 nm after 16 to 18 hours at 37°C. This plate format conserves test compound and provides precise, quantitative data with low standard deviation determinations. Polymerase IIIC (Pol IIIC) assay. DNA polymerase activity (or inhibition thereof) was measured in a 96-well plate format. B. subtilis Pol IIIC was isolated as described by Hammond and Brown (Protein Expr. Purif., 3: 65-70 (1992)). Each 25 µl assay contained 30 mM Tris, pH 7.5, 10 mM magnesium acetate, 4 mM dithiothreitol, 20% glycerol, with 25 µM dATP, dCTP, dGTP and 10 µM dTTP (^3H-labelled at 1.44 Ci/mmole) and 0.4 mg/ml activated calf thymus DNA as substrates, as described previously (see Barnes et al, op. cit). Assays were initiated by the addition of 0.025 to 0.06 units of enzyme 1 unit is the amount required to incorporate 250 pmoles of [^3H] dTMP in a standard assay), incubated for 10 minutes at 30°C and terminated by the addition of 200 µl of cold 10% trichloroacetic acid (TCA),10 mM sodium pyrophosphate. Precipitated labeled DNA was collected on glass fiber filter plates, washed, dried, and counted in a liquid scintillation counter. Determination of Ki values. DNA polymerase activity was measured in a 96-well plate format in the absence of dGTP or dATP, depending on the structure of the test compound. Each 25 µl assay contained 30 mM Tris, pH 7.5, 10 mM magnesium acetate, 4 mM dithiothreitol, 20% glycerol, with 25 µM dATP, dCTP, and 10 µM dTTP (^3H-labelled at 1.44 Ci/mmole) and 0.4 mg/ml activated calf thymus DNA as substrates, as described previously. To each well were added 2 µl of compound solution to give final concentrations ranging from 20 - 0.027 µg/ml in the assay. Assays were initiated by the addition of 0.025 to 0.06 units of enzyme (1 unit is the amount required to incorporate 250 pmoles of [^3H] dTMP in a standard assay), incubated for 10 minutes at 30 °C and terminated by the addition of 200 µl of cold 10% trichloroacetic acid, 10 mM sodium pyrophosphate. Precipitated labeled DNA was collected on glass fiber filter plates, washed, dried, and counted in a liquid scintillation counter. Ki is the concentration of test compound that reduces the control polymerase IIIC activity by 50 percent.
(§2) Compounds were also tested for antibacterial activity against certain clinically relevant strains, e.g., methicillin sensitive (MSSA) and methicillin resistant (MRSA) strains of Staphylococcus aureus.

MRSA1094 = assay: MIC against clinically relevant strains; format: cell-based; conditions: Staphylococcus aureus; methicillin resistant S. aureus strain
Method: as §1, §2

MSSA108 = assay: MIC against clinically relevant strains; format: cell-based; conditions: Staphylococcus aureus; methicillin sensitive S. aureus strain
Method: as §1, §2

MRSA1132 = assay: MIC against clinically relevant strains; format: cell-based; conditions: Staphylococcus aureus; methicillin resistant S. aureus strain
Method: as §1, §2

E. fecium = assay: Minimal Inhibitory Concentration (MIC) determination, 96 well plates; format: cell-based, Enterococcus fecium; conditions: Enterococcus; HBI medium, 16 to 18 hours at 37°C; read-out: MIC (µg/ml) E. fecium
Outline: (§3)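 Broth growth in Heart-Brain Infusion medium, seeded at about 1x10^5 CFU/ml, 16 to 18 hours at 37°C. Growth read at OD 600 nm as percent of untreated control; five concentrations per drug, five data points each, MIC reported in µg/ml.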

S.aureus (Smith) = assay: as above; format: cell-based, Staphylococcus aureus; conditions: Staphylococcus aureus
Outline: as §3

B. subtilis = assay: as above; format: cell-based, Bacillus subtilis; conditions: Bacillus subtilis; HBI medium, 16 to 18 hours at 37°C; read-out: MIC (µg/ml) B. subtilis
Outline: as §3

B. subtilis Pol IIIC = molecular target: T1, B. subtilis Pol IIIC (Bacillus subtilis, UniProt P13267); assay: Polymerase IIIC (Pol IIIC) assay, determination of Ki values; format: biochemical; conditions: Ki (µM) Pol IIIC, assay in absence of dGTP or dATP; Ki is the concentration that reduces control polymerase IIIC activity by 50 percent
T1 construct: made in house
Outline: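 Isolated B. subtilis Pol IIIC (0.025–0.06 units) run 10 min at 30°C in 30 mM Tris pH 7.5, 10 mM Mg acetate, 4 mM DTT, 20% glycerol. Substrates were 0.4 mg/ml activated calf thymus DNA, 25 µM dNTPs and 10 µM [3H]dTTP, with dGTP or dATP omitted per compound structure.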

S. aureus = assay: Minimal Inhibitory Concentration (MIC) determination, 96 well plates; format: cell-based, Staphylococcus aureus; conditions: Staphylococcus aureus, read-out: MIC (µg/ml) S. aureus
Outline: (§4)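 Cultures seeded at approximately 1x10^5 CFU/ml in Heart-Brain Infusion medium were exposed to five compound concentrations, five data points each, for 16 to 18 hours at 37°C. Growth at OD 600 nm was expressed as percent of control, and MIC values are given in µg/ml.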

E. fecalis = assay: as above; format: cell-based, Enterococcus fecalis; conditions: Enterococcus; HBI medium, 16 to 18 hours at 37°C; read-out: MIC (µg/ml) E. fecalis
Outline: as §3

E. coli = assay: as above; format: cell-based, Escherichia coli; conditions: Escherichia coli; HBI medium, 16 to 18 hours at 37°C; read-out: MIC (µg/ml) E. coli
Outline: as §4

MRSA 1094 = assay: In vivo efficacy of Compound 70 in mouse models; parameters: species or system Staphylococcus aureus; conditions: mice, 10^7 CFU/mouse + 5% Mucin; positive control, 30mg/kg, t=0
Method: (§5) Swiss Webster mice, ca. 20 g each, were infected with Staphylococcus aureus (Smith strain) by the intraperitoneal route. Test compounds (2, 4, 5, 6, 7, 8, 10, 12) were dissolved in 10% dimethylsulfoxide in peanut oil to a concentration of 2 mg/ml. Vancomycin was used as positive control drug (i.e., protection from lethal infection). Fifteen minutes after infection, test compounds, vancomycin, or vehicle alone were given intraperitoneally to groups of five mice each. Animals were monitored for three days, and the number of mice surviving was tabulated for each treatment.
(§6) Using the same basic procedure as described above, the in vivo efficacy of Compound 70 was also evaluated at various doses in mice infected with S. aureaus (Smith), MRSA 1094, Enterococcus faecalis, or vancomycin-resistant Enterococcus faecalis strain VRE 700802. […] Negative controls were mice infected that received no treatment. Mucin was employed as an adjuvant to facilitate bacterial infection in mice, where indicated.

[1] = system: Staphylococcus aureus (Smith); assay: In vivo efficacy of Compound 70 in mouse models; conditions: mice, 10^8 CFU/mouse; positive control, 30mg/kg, t=0
Method: as §5, §6

[2] = system: Enterococcus faecalis (ATCC 29212); assay: In vivo efficacy of Compound 70 in mouse models; conditions: mice, 3x10^7 CFU/mouse + 5% Mucin; positive control, 100mg/kg, t=0
Method: as §5, §6

[3] = HBI medium, 16 to 18 hours at 37°C, read-out: MIC (µg/ml) S.aureus (Smith)
[4] = table of MSSA/MRSA strains, read-out: MIC (µg/ml) S. aureus (Smith)
[5] = HBI medium, 16 to 18 hours at 37°C

T1 sequence (P13267 whole entry): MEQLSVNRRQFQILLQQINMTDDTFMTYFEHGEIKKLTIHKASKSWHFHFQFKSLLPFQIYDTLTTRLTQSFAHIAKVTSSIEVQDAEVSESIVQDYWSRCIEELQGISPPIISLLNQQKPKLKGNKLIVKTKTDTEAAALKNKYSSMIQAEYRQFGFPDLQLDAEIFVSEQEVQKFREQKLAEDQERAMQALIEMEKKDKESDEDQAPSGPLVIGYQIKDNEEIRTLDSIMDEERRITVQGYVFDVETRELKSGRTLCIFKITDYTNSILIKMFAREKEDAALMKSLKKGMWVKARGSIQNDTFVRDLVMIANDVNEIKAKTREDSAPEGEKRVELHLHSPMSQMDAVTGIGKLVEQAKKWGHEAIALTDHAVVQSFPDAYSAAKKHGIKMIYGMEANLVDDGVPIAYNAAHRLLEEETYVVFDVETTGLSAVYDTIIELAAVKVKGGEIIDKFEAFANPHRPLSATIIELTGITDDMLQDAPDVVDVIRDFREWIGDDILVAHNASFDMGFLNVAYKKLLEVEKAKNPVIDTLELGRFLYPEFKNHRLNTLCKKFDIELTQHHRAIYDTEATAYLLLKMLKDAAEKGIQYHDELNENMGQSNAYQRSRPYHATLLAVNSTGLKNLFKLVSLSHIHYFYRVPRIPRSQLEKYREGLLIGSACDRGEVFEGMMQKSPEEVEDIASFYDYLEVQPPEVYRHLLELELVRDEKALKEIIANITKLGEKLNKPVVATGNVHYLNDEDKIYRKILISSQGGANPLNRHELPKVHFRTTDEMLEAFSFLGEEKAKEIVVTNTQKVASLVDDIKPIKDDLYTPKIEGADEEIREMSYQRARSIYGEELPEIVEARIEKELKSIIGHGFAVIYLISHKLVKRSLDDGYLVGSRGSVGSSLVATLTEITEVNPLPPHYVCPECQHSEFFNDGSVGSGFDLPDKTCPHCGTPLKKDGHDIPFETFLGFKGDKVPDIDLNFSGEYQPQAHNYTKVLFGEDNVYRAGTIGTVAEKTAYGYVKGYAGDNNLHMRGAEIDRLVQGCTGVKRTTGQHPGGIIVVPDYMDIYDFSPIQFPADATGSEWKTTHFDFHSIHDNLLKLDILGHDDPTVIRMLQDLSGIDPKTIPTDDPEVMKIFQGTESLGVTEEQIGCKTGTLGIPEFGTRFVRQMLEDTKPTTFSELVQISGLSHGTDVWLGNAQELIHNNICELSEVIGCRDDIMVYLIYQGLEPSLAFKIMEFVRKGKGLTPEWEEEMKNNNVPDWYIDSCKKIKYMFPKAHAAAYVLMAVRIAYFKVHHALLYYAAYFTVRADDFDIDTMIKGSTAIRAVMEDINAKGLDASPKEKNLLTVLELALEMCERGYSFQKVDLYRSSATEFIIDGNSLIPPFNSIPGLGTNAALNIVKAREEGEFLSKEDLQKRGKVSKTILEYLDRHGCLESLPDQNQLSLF

SMILES | MIC (MRSA 1123) | MIC (MRSA1094) | MIC (MSSA108) | MIC (MRSA1132) | MIC (E. fecium) | MIC (S.aureus (Smith); [3]) | MIC (S.aureus (Smith); [4]) | MIC (B. subtilis) | Ki (B. subtilis Pol IIIC) | MIC (S. aureus; [5]) | MIC (S. aureus; table of MSSA/MRSA strains) | MIC (E. fecalis) | MIC (E. coli) | % Survival at 72 hours (MRSA 1094) | % Survival at 72 hours [1] | % Survival at 72 hours [2]
CCc1cc(Nc2cc(=O)n(CCCCN3CCN(c4c(F)cc5c(=O)c(C(=O)O)cn(CC)c5c4F)CC3)c(=O)[nH]2)ccc1C [Compound 7, 3-{4-[1-(1-ethyl-3-carboxy-4-oxo-6,8-difluoro-7-quinolyl)-4-piperazinyl]butyl}-6-(3-ethyl-4-methylanilino)uracil] | 0.625 µg/mL (≈ 0.982 µM) | 0.625 µg/mL (≈ 0.982 µM) | 0.313 µg/mL (≈ 0.492 µM) | 0.625 µg/mL (≈ 0.982 µM) | 1.25 µg/mL (≈ 1.96 µM) | 1.25 µg/mL (≈ 1.96 µM) | 0.625 µg/mL (≈ 0.982 µM) | 0.156 µg/mL (≈ 0.245 µM) | 0.021 µM | 0.625 µg/mL (≈ 0.982 µM) | 0.625 µg/mL (≈ 0.982 µM) | 1.25 µg/mL (≈ 1.96 µM) | > 20 µg/mL |  |  | 
CCc1cc(Nc2cc(=O)n(CCCCN3CCN(c4cc5c(cc4F)c(=O)c(C(=O)O)cn5-c4ccc(F)cc4F)CC3)c(=O)[nH]2)ccc1C [Compound 12, 3-{4-[1-(1-{2,4-difluorophenyl}-3-carboxy-4-oxo-6-fluoro-7-quinolyl)-4-piperazinyl]butyl}-6-(3-ethyl-4-methylanilino)uracil] | 1.25 µg/mL (≈ 1.78 µM) | 0.625 µg/mL (≈ 0.889 µM) | 0.625 µg/mL (≈ 0.889 µM) | 0.625 µg/mL (≈ 0.889 µM) | 5 µg/mL (≈ 7.12 µM) | 0.313 µg/mL (≈ 0.445 µM) | 0.313 µg/mL (≈ 0.445 µM) | 0.156 µg/mL (≈ 0.222 µM) | 0.018 µM | 0.313 µg/mL (≈ 0.445 µM) | 0.313 µg/mL (≈ 0.445 µM) | 2.5 µg/mL (≈ 3.56 µM) | 2.5 µg/mL (≈ 3.56 µM) |  |  | 
CN[C@H](CC(C)C)C(=O)N[C@H]1C(=O)N[C@@H](CC(N)=O)C(=O)N[C@H]2C(=O)N[C@H]3C(=O)N[C@H](C(=O)N[C@H](C(=O)O)c4cc(O)cc(O)c4-c4cc3ccc4O)[C@H](O)c3ccc(c(Cl)c3)Oc3cc2cc(c3O[C@@H]2O[C@H](CO)[C@@H](O)[C@H](O)[C@H]2O[C@H]2C[C@](C)(N)[C@H](O)[C@H](C)O2)Oc2ccc(cc2Cl)[C@H]1O [vancomycin, reference compound] |  |  |  |  |  |  |  |  |  |  |  |  |  | 95% (19/20)** | 100% (20/20)** | vancomycin (100mg/kg, t=0) 100% (10/10)**
